Assay results: patent publication US9353171B2 (The Administrators of the Tulane Educational Fund, priority 2011, dated 2016)
Bridges are numbered along the chain shown (N, C = ends). Where no end group is shown, it is not given here.

Experiments:
[1] = rat, in vivo, iv; cited from earlier work
[2] = tested on: human renal proximal tubule epithelial cells (HK-2 human kidney cells); assay: Iohexol-induced inhibition of proliferation / loss of viable HK-2 cells, MTT conversion; type: cell-based; settings: for loss of viable human renal proximal tubule epithelial cells caused by iohexol: various concentrations
Procedure: The HK-2 human kidney cells were cultured in Keratinocyte-Serum Free Medium supplemented with recombinant epidermal growth factor and bovine pituitary extract. […] Each value represents the mean plus/minus the standard error of four determinations. **p<0.01 and *p<0.05 compared to the cells treated only with iohexol.

[3] = tested on: human renal proximal tubule epithelial cells (HK-2 human kidney cells); assay: Urografin-induced injury (cytotoxicity) of HK-2 cells, lactate dehydrogenase activity in the culture medium; type: cell-based; settings: for Urografin-induced cell death of human renal proximal tubule epithelial cells: various concentrations added to the medium
Procedure: The HK-2 human kidney cells were cultured in Keratinocyte-Serum Free Medium supplemented with recombinant epidermal growth factor and bovine pituitary extract. […] Each value represents the mean plus/minus the standard error of four determinations. **p<0.01 and *p<0.05 compared to the cells treated only with Urografin.
The HK-2 human kidney cells were cultured in Keratinocyte-Serum Free Medium supplemented with recombinant epidermal growth factor and bovine pituitary extract. […] Each value represents the mean plus/minus the standard error of eight determinations. **p<0.01 and *p<0.05 compared to the cells treated only with Urografin. The ID numbers in the figure correspond to the SEQ ID NO numbers in the Sequence Listing. ID1=PACAP38, ID2=PACAP27, ID4=[D-Ser^2]PACAP38, ID5=[Aib^2]PACAP38, ID6=[D-Ser^2,Lys^38-palmitoyl]PACAP38, ID8=[Ala^22]PACAP38, ID10=[Lys^34]PACAP38, ID38=N-acetyl[Pip^3]PACAP38, ID39=[Pip^3,Ala^14,17,Aib^16,28,Lys^34, D-Lys^38]PACAP38, and ID40=[Pip^3,Ala^15,17,Aib^16,28,Lys^34,D-Lys^38]PACAP38.
(§1) At the highest dose tested, PACAP38 reduced the cell death caused by Urografin by more than 70%.

[4] = tested on: human renal proximal tubule epithelial cells (HK-2 human kidney cells); assay: Secretion of KIM-1 by HK-2 cells treated with Urografin or iohexol, ELISA of culture medium; type: cell-based; settings: 10^−6 M PACAP38, ELISA (FIG. 5)
Procedure: The HK-2 human kidney cells were cultured in Keratinocyte-Serum Free Medium supplemented with recombinant epidermal growth factor and bovine pituitary extract. The effects of 10^−6 M PACAP38 on the excretion of KIM-1 were assessed by determining the concentration of KIM-1 in the culture medium with an enzyme-linked immunosorbent assay. Each value represents the mean plus/minus the standard error of three determinations. **p<0.01 and *p<0.05 compared to the cells treated only with Urografin.
as §1

[5] = tested on: male homozygous eNOS-deficient mice; assay: Mouse model of contrast-induced nephropathy (Urografin i.v.), serum and kidney biomarkers; type: in vivo; settings: 72 h
Procedure: (§2) Male homozygous eNOS-deficient mice were given a single intravenous injection of Urografin at a dose of 1.85 g iodine/kg body weight. The mice were deprived of water for 24 hours before the start of the experiment. Twenty micrograms of PACAP38 were given intraperitoneally 1 hour before the injection of Urografin and an additional dose was given 12 hours later. The control group of mice was injected intravenously with the same volume of saline as for the injections of Urografin and PACAP38 on the same schedule. The mice were euthanized 72 hours after the injection of Urografin. The concentration of cystatin C in serum was determined with an enzyme-linked immunosorbent assay. Each value represents the mean plus/minus the standard error of five or eight determinations. **p<0.01 compared to the group treated with Urografin and saline.
as §2, with “control” for “control group of”, “mice were” for “mice was”, “Urografin. Quantification” for “Urografin. The concentration”, “of mRNA levels for KIM-1” for “of cystatin C in serum”, “was made by real-time reverse transcriptase polymerase chain reaction analyses.” for “was determined with an enzyme-linked immunosorbent assay.”
as §2, with “control” for “control group of”, “mice were” for “mice was”, “Urografin. Quantification” for “Urografin. The concentration”, “of mRNA levels for netrin-1” for “of cystatin C in serum”, “was made by real-time reverse transcriptase polymerase chain reaction analyses.” for “was determined with an enzyme-linked immunosorbent assay.”
as §2, with “control” for “control group of”, “mice were” for “mice was”, “Urografin. Quantification” for “Urografin. The concentration”, “of mRNA levels for TNF-α” for “of cystatin C in serum”, “was made by real-time reverse transcriptase polymerase chain reaction analyses.” for “was determined with an enzyme-linked immunosorbent assay.”, “**p<0.01 and *p<0.05” for “**p<0.01”
Male homozygous eNOS-deficient mice were given a single intravenous injection of Urografin at a dose of 1.85 g iodine/kg body weight. The mice were deprived of water for 24 hours before the start of the experiment. Twenty micrograms of PACAP38 were given intraperitoneally 1 hour before the injection of Urografin and an additional dose was given 12 hours later. The control mice were injected intravenously with the same volume of saline as for the injections of Urografin and PACAP38 on the same schedule. The mice were euthanized 72 hours after the injection of Urografin. […]

PAC1 receptor = target: T1, PAC1 receptor (Homo sapiens, UniProt P41586); settings: in words; cited from earlier work
T1 sequence (P41586 21-468): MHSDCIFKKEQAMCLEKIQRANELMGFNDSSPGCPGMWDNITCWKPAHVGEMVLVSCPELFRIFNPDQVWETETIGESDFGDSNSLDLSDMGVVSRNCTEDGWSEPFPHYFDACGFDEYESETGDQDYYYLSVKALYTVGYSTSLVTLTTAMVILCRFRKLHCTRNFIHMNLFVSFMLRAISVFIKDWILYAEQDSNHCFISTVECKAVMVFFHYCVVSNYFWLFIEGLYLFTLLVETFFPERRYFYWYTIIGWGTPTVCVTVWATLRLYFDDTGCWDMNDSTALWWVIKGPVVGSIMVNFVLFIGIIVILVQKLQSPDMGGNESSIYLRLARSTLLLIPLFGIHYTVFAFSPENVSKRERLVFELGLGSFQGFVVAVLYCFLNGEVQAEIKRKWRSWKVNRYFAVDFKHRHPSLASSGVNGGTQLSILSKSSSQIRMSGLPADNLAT

[^125I]-PACAP38: radioiodinated PACAP38 used in a cited rat half-life study
half-life in the bloodstream [1]: 5 to 6 min

VIP (HSDAVFTDNYTRLRKQMAVKKYLNSILN-NH2; listed as Homo sapiens)
loss of viable human renal proximal tubule epithelial cells caused by iohexol ([2]; MTT (FIG. 4)): significant dose-dependent reduction | Urografin-induced cell death of human renal proximal tubule epithelial cells ([3]; LDH in medium (FIG. 2)): significant dose-dependent reduction

PACAP38
Urografin-induced secretion of KIM-1 into the medium [4]: significantly reduced | iohexol-induced secretion of KIM-1 into the medium [4]: significantly reduced | potency as renoprotectant against iohexol compared with VIP ([2]; 10^−7 M and 10^−6 M (FIG. 4)): significantly more potent than VIP | loss of viable human renal proximal tubule epithelial cells caused by iohexol at the highest dose ([2]; highest dose tested, MTT (FIG. 4)): almost completely prevented | loss of viable human renal proximal tubule epithelial cells caused by iohexol ([2]; MTT (FIG. 4)): significant dose-dependent reduction | potency against Urografin-induced cell injury compared with VIP ([3]; 10^−8 M (p<0.05), 10^−7 M (p<0.01) and 10^−6 M (p<0.01) (FIG. 2)): significantly more potent than VIP | reduction of the cell death caused by Urografin ([3]; highest dose tested, HK-2 cells, LDH in medium (FIG. 2)): more than 70% | Urografin-induced cell death of human renal proximal tubule epithelial cells ([3]; LDH in medium (FIG. 2)): significant dose-dependent reduction | Urografin-induced increase in serum levels of cystatin C ([5]; 20 μg i.p. 1 h before and 12 h after Urografin 1.85 g iodine/kg i.v., ELISA (FIG. 6)): reversed the increases | Urografin-induced increase in kidney levels of TNF-α protein ([5]; 20 μg i.p. 1 h before and 12 h after Urografin, ELISA (FIG. 16)): reversed the increases | Urografin-induced increase in kidney levels of TGF-β1 protein ([5]; 20 μg i.p. 1 h before and 12 h after Urografin, ELISA (FIG. 17)): reversed the increases | Urografin-induced increase in kidney levels of MCP-1 protein ([5]; 20 μg i.p. 1 h before and 12 h after Urografin, ELISA (FIG. 18)): reversed the increases | Urografin-induced increase in kidney levels of IFN-γ protein ([5]; 20 μg i.p. 1 h before and 12 h after Urografin, ELISA (FIG. 19)): reversed the increases | Urografin-induced increase in serum levels of creatinine ([5]; 20 μg i.p. 1 h before and 12 h after Urografin, LC-MS/MS (FIG. 11)): reversed the increases | Urografin-induced increase in kidney levels of KIM-1 mRNA ([5]; 20 μg i.p. 1 h before and 12 h after Urografin, real-time RT-PCR (FIG. 7)): reversed the increases | Urografin-induced increase in kidney levels of netrin-1 mRNA ([5]; 20 μg i.p. 1 h before and 12 h after Urografin, real-time RT-PCR (FIG. 8)): reversed the increases | Urografin-induced increase in kidney levels of TNF-α mRNA ([5]; 20 μg i.p. 1 h before and 12 h after Urografin, real-time RT-PCR (FIG. 9)): reversed the increases | Urografin-induced increase in kidney levels of iNOS mRNA ([5]; 20 μg i.p. 1 h before and 12 h after Urografin, real-time RT-PCR (FIG. 10)): reversed the increases | Urografin-induced increase in kidney levels of Nogo-B1 mRNA ([5]; 20 μg i.p. 1 h before and 12 h after Urografin, real-time RT-PCR (FIG. 12)): reversed the increases | Urografin-induced increase in kidney levels of TGF-β1 mRNA ([5]; 20 μg i.p. 1 h before and 12 h after Urografin, real-time RT-PCR (FIG. 13)): reversed the increases | Urografin-induced increase in kidney levels of Nox-4 mRNA ([5]; 20 μg i.p. 1 h before and 12 h after Urografin, real-time RT-PCR (FIG. 14)): reversed the increases | Urografin-induced increase in kidney levels of Nox-2 mRNA ([5]; 20 μg i.p. 1 h before and 12 h after Urografin, real-time RT-PCR (FIG. 15)): reversed the increases

B1: Maxadilan: 61-amino-acid peptide with two disulfide bridges from salivary glands of the sand fly Lutzomyia longipalpis; conformational analog of PACAP (peptide, listed as Lutzomyia longipalpis)
chain: CDATCQFRKAIEDCRKKAHHSDVLQTSVQTTATFTSMDTSQLPGSGVFKECMKQKAKEFKA
modifications: disulfide 1-5; disulfide 14-51 (inferred)
notes: 61-amino-acid peptide with two disulfide bridges from salivary glands of the sand fly Lutzomyia longipalpis; conformational analog of PACAP
binding to the PAC1 receptor (PAC1 receptor): high affinity
